The values below come from patent US20260265248A1, “NOVEL PD-L1 INHIBITORS” (AFFIRMA BIOTECH S. L., priority 2023, published 2026).

The target in the assay is T1, PD-1/PD-L1 (Homo sapiens, UniProt Q9NZQ7).
T1 construct: purchased CisBio
Nature of the assay: PD1-PDL1 HTRF assay. Conditions: PD-1/PD-L1 homogenous time-resolved fluorescence (HTRF) binding assay; Tag1-PDL1 5 nM, Tag2-PD1 50 nM. From the text: The CisBio HTRF assay kit, purchased from CisBio only, was employed to determine the IC50 values of compounds. The PD1-PDL1 HTRF assay measures the interactions between the two proteins, PD1 and PDL1. The interaction is detected by using anti-Tag1 labeled with Europium (HTRF donor) which binds to PDL1 and anti-Tag2 labeled with XL665 (HTRF acceptor) which binds to PD1. When the two antibodies are in proximity, the excitation of the donor fluorophore results in FRET emission from the acceptor fluorophore. The presence of inhibitors for such an interaction result in reduction of HTRF signal.
The assay was conducted in 96-well white assay plates. All the reagents, including Tag1-PDL1, Tag2-PD1, Anti-Tag1-PDL1, Anti-Tag2-PD1 were thawed and diluted with PPI Europium Detection buffer to achieve the desired concentration as per the manufacturer's protocol. A 1000 μM stock solution of test inhibitors was prepared in DMSO. The stock solution was diluted in DMSO to prepare 8 concentrations (1000-0.001 μM). These stock solutions were further diluted in PPI Europium detection buffer to prepare 8 working stock solutions (100-0.0001 μM). To the 96-well plate, 2 μL of the test inhibitor working stock solutions were added followed by 4 μL of Tag1-PDL1 (5 nM) and 4 μL of Tag2-PD1 (50 nM). The plate was incubated at room temperature for 15 min. Subsequently, 10 μL of pre-mixed Anti-Tag1-PDL1 and Anti-Tag2-PD1 solution was added. The plate was sealed and incubated at room temperature for 1 h. The HTRF signal was read on Perkin Elmer Envision plate reader using excitation wavelength of 320 nm, emission wavelengths of 620 nm and 665 nm. Results were obtained by calculating the ratio of signal from acceptor at 665 nm to that of signal from donor at 620 nm multiplied by […]. The IC50 values were determined by the Hill equation using GraphPad Prism software.
(In TR-FRET formats the signal depends on donor and acceptor labels being close together.)

T1 sequence (Q9NZQ7 19-238 limits assumed): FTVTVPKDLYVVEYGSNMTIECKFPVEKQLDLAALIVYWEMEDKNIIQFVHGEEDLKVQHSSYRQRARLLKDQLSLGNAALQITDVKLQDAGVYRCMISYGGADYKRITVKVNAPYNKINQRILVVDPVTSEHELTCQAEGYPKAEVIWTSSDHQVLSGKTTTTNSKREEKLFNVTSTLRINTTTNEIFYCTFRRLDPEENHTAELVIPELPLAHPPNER

Broadly, the IC50 is the concentration at which inhibition is half-maximal. Lower therefore signals greater potency. As for `Cc1c(-c2ccc3c(c2)OCCO3)cccc1-c1ccn2c(-c3ccc(CN4CCC[C@H]4C(=O)O)cc3)cnc2c1` [Example 28, (4-(7-(3-(2,3-dihydrobenzo[b][1,4]dioxin-6-yl)-2-methylphenyl)imidazo[1,2-a]pyridin-3-yl)benzyl)-L-proline], the IC50 lay within 100 to 1000 nM.
The result for `Cc1c(-c2ccc3c(c2)OCCO3)cccc1-c1ccn2c(-c3ccc(CN4CC[C@@H]4C(=O)O)cc3)cnc2c1` [Example 29, (R)-1-(4-(7-(3-(2,3-dihydrobenzo[b][1,4]dioxin-6-yl)-2-methylphenyl)imidazo[1,2-a]pyridin-3-yl)benzyl)azetidine-2-carboxylic acid] reads 100 to 1000 nM; that for `Cc1c(-c2ccc3c(c2)OCCO3)cccc1-c1ccn2c(-c3ccc(CNCC(O)CC(=O)O)cc3)cnc2c1` (stereo not shown) [Example 30, 4-((4-(7-(3-(2,3-dihydrobenzo[b][1,4]dioxin-6-yl)-2-methylphenyl)imidazo[1,2-a]pyridin-3-yl)benzyl)amino)-3-hydroxybutanoic acid], 100 to 1000 nM.
The same measure for `Cc1c(-c2ccc3c(c2)OCCO3)cccc1-c1ccn2c(-c3ccc(CNC[C@@H](O)CO)cc3)cnc2c1` [Example 31, (R)-3-((4-(7-(3-(2,3-dihydrobenzo[b][1,4]dioxin-6-yl)-2-methylphenyl)imidazo[1,2-a]pyridin-3-yl)benzyl)amino)propane-1,2-diol]: 100 to 1000 nM.
The result for `Cc1c(-c2ccc3c(c2)OCCO3)cccc1-c1ccn2c(-c3ccc(CNC[C@H](O)CO)cc3)cnc2c1` [Example 32, (S)-3-((4-(7-(3-(2,3-dihydrobenzo[b][1,4]dioxin-6-yl)-2-methylphenyl)imidazo[1,2-a]pyridin-3-yl)benzyl)amino)propane-1,2-diol] reads 100 to 1000 nM.
`Cc1c(-c2ccc3c(c2)OCCO3)cccc1-c1ccn2c(-c3ccc(CN4CCCCC4C(=O)O)cc3)cnc2c1` (stereo not shown) [Example 36, 1-(4-(7-(3-(2,3-dihydrobenzo[b][1,4]dioxin-6-yl)-2-methylphenyl)imidazo[1,2-a]pyridin-3-yl)benzyl)piperidine-2-carboxylic acid] returned an IC50 of 100 to 1000 nM.
As for `Cc1c(-c2ccc3c(c2)OCCO3)cccc1-c1ccn2c(-c3ccc(CN4CCC[C@H]4C(=O)O)cc3)cnc2c1` [Example 37, (4-(7-(3-(2,3-dihydrobenzo[b][1,4]dioxin-6-yl)-2-methylphenyl)imidazo[1,2-a]pyridin-3-yl)benzyl)proline], the IC50 lay within 100 to 1000 nM.
As for `Cc1c(-c2ccc3c(c2)OCCO3)cccc1-c1ccn2c(-c3ccc(CN4C[C@@H](C(=O)O)C[C@H]4O)cc3)cnc2c1` [Example 38, (3S,5R)-1-(4-(7-(3-(2,3-dihydrobenzo[b][1,4]dioxin-6-yl)-2-methylphenyl)imidazo[1,2-a]pyridin-3-yl)benzyl)-5-hydroxypyrrolidine-3-carboxylic acid], the IC50 was in the range of 100 to 1000 nM.
`COc1cc(-c2cnc3cc(-c4cccc(-c5ccc6c(c5)OCCO6)c4C)ccn23)cc(OC)c1CN1CCC[C@H]1C(=O)O` [Example 40, (4-(7-(3-(2,3-dihydrobenzo[b][1,4]dioxin-6-yl)-2-methylphenyl)imidazo[1,2-a]pyridin-3-yl)-2,6-dimethoxybenzyl)-L-proline] came in with an IC50 of 100 to 1000 nM.
The result for `Cc1c(-c2ccc3c(c2)OCCO3)cccc1-c1ccn2c(-c3ccc(C(=O)NCC(=O)O)cc3)cnc2c1` [Example 41, (4-(7-(3-(2,3-dihydrobenzo[b][1,4]dioxin-6-yl)-2-methylphenyl)imidazo[1,2-a]pyridin-3-yl)benzoyl)glycine] reads 100 to 1000 nM.
The same measure for `Cc1c(-c2ccc3c(c2)OCCO3)cccc1-c1ccn2c(-c3ccc(C(=O)N4CCC[C@@H]4C(=O)O)cc3)cnc2c1` [Example 42, (4-(7-(3-(2,3-dihydrobenzo[b][1,4]dioxin-6-yl)-2-methylphenyl)imidazo[1,2-a]pyridin-3-yl)benzoyl)-D-proline]: 100 to 1000 nM; for `Cc1c(-c2ccc3c(c2)OCCO3)cccc1-c1ccn2c(-c3ccc(C(=O)N4CCC[C@H]4C(=O)O)cc3)cnc2c1` [Example 43, (4-(7-(3-(2,3-dihydrobenzo[b][1,4]dioxin-6-yl)-2-methylphenyl)imidazo[1,2-a]pyridin-3-yl)benzoyl)-L-proline]: 100 to 1000 nM; for `Cc1c(-c2ccccc2)cccc1-c1ccn2c(-n3ccc(C(=O)NCCO)n3)cnc2c1` [Example 44, N-(2-hydroxyethyl)-1-(7-(2-methyl-[1,1′-biphenyl]-3-yl)imidazo[1,2-a]pyridin-3-yl)-1H-pyrazole-3-carboxamide]: 100 to 1000 nM.
The result for `Cc1c(-c2ccccc2)cccc1-c1ccn2c(-n3ccc(C(=O)NCC(=O)O)n3)cnc2c1` [Example 45, (1-(7-(2-methyl-[1,1′-biphenyl]-3-yl)imidazo[1,2-a]pyridin-3-yl)-1H-pyrazole-3-carbonyl)glycine] reads 100 to 1000 nM.
`CC(=O)NCCNC(=O)c1ccn(-c2cnc3cc(-c4cccc(-c5ccccc5)c4C)ccn23)n1` [Example 46, N-(2-acetamidoethyl)-1-(7-(2-methyl-[1,1′-biphenyl]-3-yl)imidazo[1,2-a]pyridin-3-yl)-1H-pyrazole-3-carboxamide] registered an IC50 of 100 to 1000 nM.
The same measure for `Cc1c(-c2ccccc2)cccc1-c1ccn2c(-n3ccc(C(=O)NCCC(=O)O)n3)cnc2c1` [Example 47, N 3-(1-(7-(2-methyl-[1,1′-biphenyl]-3-yl)imidazo[1,2-a]pyridin-3-yl)-1H-pyrazole-3-carboxamido)propanoic acid]: 100 to 1000 nM; for `Cc1c(-c2ccc3c(c2)OCCO3)cccc1-c1ccn2c(-n3ccc(C(=O)NCC(=O)O)n3)cnc2c1` [Example 48, (1-(7-(3-(2,3-dihydrobenzo[b][1,4]dioxin-6-yl)-2-methylphenyl)imidazo[1,2-a]pyridin-3-yl)-1H-pyrazole-3-carbonyl)glycine]: 10 to 100 nM; for `Cc1c(-c2ccc3c(c2)OCCO3)cccc1-c1ccn2c(-n3ccc(C(=O)NCC(=O)O)n3)nnc2c1` [Example 49, (1-(7-(3-(2,3-dihydrobenzo[b][1,4]dioxin-6-yl)-2-methylphenyl)-[1,2,4]triazolo[4,3-a]pyridin-3-yl)-1H-pyrazole-3-carbonyl)glycine]: 10 to 100 nM.
The same measure for `Cc1c(-c2ccccc2)cccc1-c1ccn2c(C#CCN3CCC[C@@H]3C(=O)O)cnc2c1` [Example 50, (3-(7-(2-methyl-[1,1′-biphenyl]-3-yl)imidazo[1,2-a]pyridin-3-yl)prop-2-yn-1-yl)-D-proline]: 100 to 1000 nM; for `Cc1c(-c2ccccc2)cccc1-c1ccn2c(C#CCN3CCC[C@H]3C(=O)O)cnc2c1` [Example 51, (3-(7-(2-methyl-[1,1′-biphenyl]-3-yl)imidazo[1,2-a]pyridin-3-yl)prop-2-yn-1-yl)-L-proline]: 100 to 1000 nM; for `Cc1c(-c2ccccc2)cccc1-c1ccn2c(-c3ccc(CN4CCCCC4C(=O)O)cc3)nnc2c1` (stereo not shown) [Example 52, 1-(4-(7-(2-methyl-[1,1′-biphenyl]-3-yl)-[1,2,4]triazolo[4,3-a]pyridin-3-yl)benzyl)piperidine-2-carboxylic acid]: 100 to 1000 nM.
The result for `Cc1c(-c2ccccc2)cccc1-c1ccn2c(-c3ccc(CN4CCC[C@H]4C(=O)O)cc3)nnc2c1` [Example 53, (4-(7-(2-methyl-[1,1′-biphenyl]-3-yl)-[1,2,4]triazolo [4,3-a]pyridin-3-yl)benzyl)proline] reads 100 to 1000 nM.
